In assay [1] the test system is RH-18 (Rhabdomyosarcoma). The assay is described as follows: combination Emax (second highest fraction inhibited in the dose matrix, 72 h); higher = more inhibition; extreme values may be limits of the assay. The procedure, abridged:
(§1)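 After 24 hours at 37°C and 5% CO2 in 1536-well plates, cells in DMEM/F12 or RPMI plus 10% FBS received two-drug dose matrices for 72 hours. Viability came from CellTiter-Glo 2.0 luminescence and was scaled as inhibition, anchored at 0 by vehicle wells and at 1 by blank wells. Combination Emax is taken as the second-highest inhibition in the matrix, and Bliss excess as the observed combination effect less EA + EB − EA·EB, with EA and EB the single-agent effects.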

The test system of assay [2] is SIMA (Neuroblastoma). The assay is described as above. In a few lines:
as §1

Assay [3] concerns HARA (Squamous Cell Lung Carcinoma). The assay is described as follows: Bliss excess, mean over the matrix (fraction); higher = more synergy. In a few lines: as §1
Assay [4] relates to RH-18 (Rhabdomyosarcoma). The description is as above. The procedure, abridged:
as §1

The test system of assay [5] is 8305C (Thyroid Gland Carcinoma). The description is as above. The procedure, abridged:
as §1

For assay [6], the system named is NCI-H747 (Colorectal Carcinoma). The assay is described as above. In a few lines: as §1
Assay [7] relates to Hs-633T (Other Solid Carcinomas). Described as above. The procedure, abridged:
as §1

Assay [8] concerns KYSE-410 (Esophageal Squamous Cell Carcinoma). The description is as above. In a few lines: as §1
For assay [9], the system named is 639-V (Bladder Carcinoma). The description is as above. The procedure, abridged:
as §1

In assay [10] the test system is MDA-MB-468 (Breast Carcinoma). The assay is described as above. The procedure, abridged:
as §1

Assay [11] concerns SIMA (Neuroblastoma). The assay is described as above. The procedure, abridged: as §1
Assay [12] has as its system CTB-1 (B-Cell Non-Hodgkin's Lymphoma). The description is as above. The procedure, abridged:
as §1
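Wherever Bliss excess, mean over the matrix is given: after 72 h of two-drug dosing.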

Consider `C[C@@H]1COCCN1c1cc(C2([S@](C)(=N)=O)CC2)nc(-c2ccnc3[nH]ccc23)n1` [AZD6738] + O=C(c1cc(Cc2n[nH]c(=O)c3ccccc23)ccc1F)N1CCN(C(=O)C2CC2)CC1 [Olaparib] (first compound max 10 µM, 7x7, partner max 10 µM), for which the “combination Emax” value in [1] came to 0.406; in assay [2] it was 0.642. Moreover, the Bliss excess is 0.033 in assay [3]; 0.012 in assay [4]; -0.0594 in assay [5]; 0.0096 in [6]; 0.0221 in [7]; -0.0219 in assay [8]. Moreover, the Bliss excess in assay [9] was 0.0684; in [10], -0.0227; in assay [11] it was -0.0498; in assay [12], -0.0454.

For the origin of these results see the supplement of paper PMC11061612.
